From patent US20190249166A1, “Antidote for Chondroitinase” (priority 2018, published 2019)

How the values were obtained:
intervertebral disc [1] = experiment: Disc height index (DHI) by Micro-CT after intradiscal injection in rabbits; format: in vivo, New Zealand rabbits; conditions: IVD injected with 0.05 U and 0.15 U chondroitinase ABC only
chondroitinase ABC [2] = target: T1, chondroitinase ABC (Proteus vulgaris, UniProt P59807); experiment: Disc dissolution assay with bovine tail nucleus pulposus, absorbance at 232 nm; format: biochemical
T1 sequence (P59807 25-1021): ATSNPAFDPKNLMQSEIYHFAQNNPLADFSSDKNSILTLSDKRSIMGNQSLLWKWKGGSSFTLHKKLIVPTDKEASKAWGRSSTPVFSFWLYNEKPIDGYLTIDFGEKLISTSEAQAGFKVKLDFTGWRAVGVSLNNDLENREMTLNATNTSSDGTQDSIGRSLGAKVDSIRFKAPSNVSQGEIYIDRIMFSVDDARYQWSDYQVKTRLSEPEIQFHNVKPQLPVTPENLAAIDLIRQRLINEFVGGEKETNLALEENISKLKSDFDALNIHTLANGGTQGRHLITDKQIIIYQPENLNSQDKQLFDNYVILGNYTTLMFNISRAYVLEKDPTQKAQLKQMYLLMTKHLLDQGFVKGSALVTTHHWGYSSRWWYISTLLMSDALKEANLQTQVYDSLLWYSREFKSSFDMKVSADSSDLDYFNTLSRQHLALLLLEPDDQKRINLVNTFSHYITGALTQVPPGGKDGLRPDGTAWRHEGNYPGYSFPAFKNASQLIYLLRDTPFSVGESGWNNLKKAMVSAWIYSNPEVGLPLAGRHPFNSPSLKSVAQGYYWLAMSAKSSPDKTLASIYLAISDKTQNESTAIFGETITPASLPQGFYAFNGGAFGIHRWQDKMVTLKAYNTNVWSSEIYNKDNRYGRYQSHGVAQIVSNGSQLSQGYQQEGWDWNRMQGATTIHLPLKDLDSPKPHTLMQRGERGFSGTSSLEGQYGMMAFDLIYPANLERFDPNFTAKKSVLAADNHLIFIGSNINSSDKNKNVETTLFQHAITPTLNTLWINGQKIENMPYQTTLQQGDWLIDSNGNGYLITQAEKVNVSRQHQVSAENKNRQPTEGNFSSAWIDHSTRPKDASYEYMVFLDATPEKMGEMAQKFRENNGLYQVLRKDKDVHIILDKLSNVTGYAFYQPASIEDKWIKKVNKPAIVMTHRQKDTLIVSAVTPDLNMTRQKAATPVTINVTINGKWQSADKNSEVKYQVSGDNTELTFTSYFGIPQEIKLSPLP
Source text: In the case of using chondroitinase as a chemonucleolysis agent, the site of injection is a gel-like nucleus pulposus which is dense with chondroitin sulfate, collagen, and the other extra-cellular matrix. To evaluate the effect of these matrices on the inhibition, a disc dissolution assay can be conducted. In the experiment, the nucleus pulposus, of which chondroitin sulfate is composed of 65% dry weight, are collected from bovine tails. […]
Introducing the non-substrate GAG, e.g. heparin, into the solution together with the chondroitinase, results in suppression of the release of chondroitin sulfate tetrasaccharide and/or disaccharide from the nucleus pulposus sample, is therefore a strong indication of the inhibitory and antidote effect on the enzyme. This inhibition of tetrasaccharide/disaccharide release is reflected by the reduction of the absorbance at 232 nm when compared with the buffer solution in the presence chondroitinase only. […]
In disc dissolution assay, 6 intervertebral discs were obtained from a bovine tail. […] The absorbance at 232 nm of each solution was measured at 0 hours, 5 hours, and 20 hours after the immersion of the nucleus pulposus. The increase in absorbance was predominantly due to the dissolution of the small-molecule-containing unsaturated carbon-carbon double bond from the nucleus pulposus. […]

intervertebral disc [3] = experiment: Disc height index (DHI) by Micro-CT after intradiscal injection in rabbits; format: in vivo, New Zealand rabbits; conditions: for DHI, with heparin / effect on DHI reduction caused by chondroitinase ABC: 0.35 mg heparin
Protocol: Being used as an antidote, the non-substrate GAG of the present invention is effective in vivo. In the case of chemonucleolysis by chondroitinase ABC, the enzyme is injected into the nucleus pulposus for partial digestion. The effective antidote will be able to inhibit the activity of chondroitinase ABC intradiscally, as well as the reduction of the size of the intervertebral disc. […] When comparing to the control animal, for which the intervertebral disc is injected with Chondroitinase ABC only, the reduction of the disc height can only be observed in the control animal. The detailed experimental result is illustrated in Example 6.
New Zealand rabbits weighing 2.5-3.0 kg were divided into two groups: (1) injection of Chondroitinase ABC (0.05 U and 0.15 U) and heparin (0.35 mg); and (2) injection of chondroitinase ABC (0.05 U and 0.15 U). Before injection of chondroitinase ABC with or without heparin, rabbits were fixed in the dorsal position and anesthetized by 10% chloral hydrate (1 ml/kg). The intervertebral disc (IVD) was located by means of portable x-ray fluoroscope and the injection of the chondroitinase ABC with or without heparin was under fluoroscopic guidance. Rabbits were sacrificed just after the injection and 3 weeks after of injection for collecting the spine. The disc height index (DHI) analyzed by using LaTheta™ Micro-CT scanners (Hitachi-Aloka) at a resolution of 48 um (FIG. 7) and is listed in Table 2.

chondroitinase ABC [4] = target: T1, chondroitinase ABC; experiment: Chondroitinase enzyme inhibition assay, absorbance at 232 nm with chondroitin sulfate C; format: biochemical; conditions: 0.0125 mg/ml heparin; 0.01 U/ml chondroitinase ABC; 0.1 mg/ml chondroitin sulfate C; 37° C., 20 min
Protocol: Freeze-dried chondroitinase is reconstituted in 0.1-10 mg/ml BSA solution, preferably 1 mg/ml. The chondroitinase solution is serially diluted into a final concentration in the range of 0.065-0.35 U/ml, and more preferably 0.260-0.175 U/ml. Chondroitin sulfate C is dissolved in a buffer at pH 7.0-9.0, preferably at pH 8.0±0.1 with Tris-HCl, sodium phosphate, sodium acetate or sodium borate, preferably 10-250 mM, and more preferably 50 mM Tris-HCl as buffer. The final concentration of chondroitin sulfate C is at the range of 0.2-20 mg/ml. Chondroitinase solution and the chondroitin sulfate C solution are pre-incubated in 37° C. and mixed in a ratio of 1:50. The reaction mixture is further incubated for 20 min for allowing the enzymatic reaction proceeding. The absorbance of the reaction mixture is continuously monitored by spectrophotometer and the rate of the reaction is calculated by multiplying the slope of the absorbance-time curve with millimolar extinct coefficient of the reaction product at 232 nm (which is reported to be 5.5.). […]
2 mg/ml Chondroitin sulfate C solution was prepared by dissolving in buffer at pH 8.0 Tris-HCl (50 mM). […] The reaction mixture was further incubated at 37° C. for 20 min in spectrophotometer and the absorbance at 232 nm was continuously monitored. […] In FIG. 3, the absorbance of the solution without the presence of heparin at 232 nm increased linearly.

chondroitinase ABC [5] = target: T1, chondroitinase ABC; experiment: Time profile of inhibition of chondroitinase ABC by heparin, absorbance at 232 nm; format: biochemical
Protocol: In one embodiment, the inhibition of chondroitinase ABC by heparin could be at a particular time point during the enzymatic treatment, so that the enzymatic action can be precisely terminated. […] The enzymatic reaction in the mixture, which is the digestion of the chondroitin sulfate polymer into unsaturated oligosaccharide or disaccharide, can be monitored at 232 nm with incubation in 37° C. The reaction can be incubated for 5 hours and at 1.5 and 2.5 hours, with suitable concentrations of heparin including, but not limited to, 0.1-0.01 times the chondroitin sulfate, being introduced for evaluating the time response of the inhibition effect. Detailed experimental results are illustrated in example 5.
Chondroitin sulfate and chondroitinase ABC were introduced into 50 mM Tris HCl buffered solution (pH 7.6), to a final concentration of 1 mg/ml and 0.001 U/ml. […] At time of 0 hour, 1.5 hour, and 2.5 hour, 0.01 mg/ml heparin was introduced into the reaction mixture separately into 3 reaction mixture, where the remaining reaction mixture was sampled and monitored at the same time interval as the 3 reaction mixture with heparin introduction. The progress of the enzymatic reaction was monitored by measuring the absorbance at 232 nm of a sample taken from the reaction mixture every 30 min.

chondroitinase ABC [6] = target: T1, chondroitinase ABC; experiment: Electrophoretic mobility shift assay (EMSA) of chondroitinase ABC and heparin; format: binding; conditions: 20 μg chondroitinase ABC with 3.8 μg heparin (about 0.2 nmol each), room temperature 30 min
Source text: Further experiments can be applied to show the direct interaction, or more precisely binding, between GAG and chondroitinase. One of the experimental methods that can show the direct interaction between non-substrate GAG and chondroitinase (without introducing other molecule, like the substrate) is the electrophoretic mobility shift (EMSA) assay.
The principle of EMSA is that the mobility of biomolecules under electrophoresis is affected by the size and charge of the biomolecule. […] The overall size will increase and the mobility is usually changed in the gel electrophoresis. In other words, a shift in the position of the biomolecule in the gel will be observed if there is binding between the biomolecules. For studying the interaction between chondroitinase and non-substrate GAG, EMSA is conducted as described. 5-30 μg chondroitinase is mixed with (a) 0.5 molar ratio, (b) equal molar, and (c) 2 folds molar excess of GAG, and incubated at room temperature for at least 20 min, and more preferred 30 min. These mixtures are loaded onto native polyacrylamide gel and subjected to electrophoresis for 2.5 hours at 100 V. Two identical gels are prepared but stained with different staining solution (Alcian blue for GAG, and Coomassie blue for chondroitinase). […]

Substance	effect on DHI (intervertebral disc [1])	absorbance at 232 nm of solution (disc dissolution) (chondroitinase ABC [2]; 1U/ml chondroitinase ABC without heparin, compared with PBS and sodium lactate)	DHI, without heparin (intervertebral disc [3]; 0.05 U chondroitinase ABC only)	DHI, without heparin (intervertebral disc [3]; 0.15 U chondroitinase ABC only)	DHI, without heparin (intervertebral disc [3]; 3 weeks after injection, 0.05 U chondroitinase ABC only)	DHI, without heparin (intervertebral disc [3]; 3 weeks after injection, 0.15 U chondroitinase ABC only)	inhibition of enzymatic reaction of chondroitinase (absorbance at 232 nm) (chondroitinase ABC [4])	rate of increase in absorbance at 232 nm of the reaction mixture (chondroitinase ABC [5]; 0.01 mg/ml heparin introduced at 0, 1.5 or 2.5 hour, 1 mg/ml chondroitin sulfate, 0.001 U/ml chondroitinase ABC, 37° C., 5 hours)	persistence of inhibition of the enzymatic reaction (chondroitinase ABC [5]; 0.01 mg/ml heparin, throughout the 5 hours reaction period)	absorbance at 232 nm of solution (disc dissolution) (chondroitinase ABC [2]; 1U/ml chondroitinase ABC and 1 mg/ml heparin in PBS with 10 mM sodium lactate, 0, 5, 20 hours)	binding to chondroitinase ABC (EMSA, Alcian Blue stain) (chondroitinase ABC [6])	DHI, with heparin (intervertebral disc [3]; 0 day after injection, 0.05 U chondroitinase ABC)	DHI, with heparin (intervertebral disc [3]; 0 day after injection, 0.15 U chondroitinase ABC)	effect on DHI reduction caused by chondroitinase ABC (intervertebral disc [3]; 0.05 U chondroitinase ABC)	effect on DHI reduction caused by chondroitinase ABC (intervertebral disc [3]; 0.15 U chondroitinase ABC)	DHI, with heparin (intervertebral disc [3]; 3 weeks after injection, 0.05 U chondroitinase ABC)	DHI, with heparin (intervertebral disc [3]; 3 weeks after injection, 0.15 U chondroitinase ABC)
Chondroitinase ABC	significantly reduction of DHI	the absorbance increased remarkably	0.082	0.071	0.044	0.048											
heparin							completely inhibited	significantly reduced	remains stable and constant	significantly reduced the absorbance	binds tightly to the enzyme	0.081	0.085	significantly inhibited the DHI reduction	inhibited the DHI reduction but the inhibitory effect was not as significant as at the lower concentration	0.082	0.066
